In ChEMBL document CHEMBL6182941, “Prodrugs Targeting Prostate-Specific Membrane Antigen against Prostate Cancer” (J Med Chem, 2025):

Assays:
[1] = molecular target: N-acetylated-alpha-linked acidic dipeptidase 2 (Homo sapiens, UniProt Q9Y3Q0); test: Binding affinity to NAALAD-2 (unknown origin) assessed as inhibition constant
[2] = Cytotoxicity against human PC3-PIP cells; conditions: PC3-PIP cell
[3] = Cytotoxicity against human PC3-PIP cells assessed as reduction in cell viability incubated for 72 hrs by CCK-8 assay
[4] = Cytotoxicity against human PC-3 flu cells assessed as reduction in cell viability incubated for 72 hrs by CCK-8 assay
[5] = Cytotoxicity against human PC-3 flu cells
[6] = molecular target: T1, N-acetylaspartylglutamate synthase A (Homo sapiens, UniProt Q8IXN7); test: Binding affinity to NAAG synthetase A (unknown origin) assessed as inhibition constant
T1 sequence (Q8IXN7 whole entry): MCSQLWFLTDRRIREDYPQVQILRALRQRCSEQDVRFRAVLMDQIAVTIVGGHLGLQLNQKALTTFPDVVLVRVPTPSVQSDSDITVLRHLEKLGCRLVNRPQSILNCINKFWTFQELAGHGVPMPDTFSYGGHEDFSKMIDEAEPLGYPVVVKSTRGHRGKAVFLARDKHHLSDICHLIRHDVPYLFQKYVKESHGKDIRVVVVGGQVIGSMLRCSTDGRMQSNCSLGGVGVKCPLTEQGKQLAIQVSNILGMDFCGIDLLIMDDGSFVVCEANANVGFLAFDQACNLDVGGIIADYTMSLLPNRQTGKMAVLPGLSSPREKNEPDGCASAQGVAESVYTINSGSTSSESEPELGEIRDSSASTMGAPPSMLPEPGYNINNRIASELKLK

[7] = tested on: LNCaP; test: Cytotoxicity against human LNCaP cells assessed as cell death measured for 24 hrs; type: functional, cell-based
[8] = tested on: A549; test: Cytotoxicity against human A549 cells assessed as reduction in cell growth; type: functional, cell-based
[9] = tested on: KB; test: Cytotoxicity against human KB cells assessed as reduction in cell growth; type: functional, cell-based
[10] = Cytotoxicity against human HK-2 cells assessed as reduction in cell viability incubated for 48 hrs by MTT assay; type: toxicity, cell-based
[11] = tested on: CWR22R; test: Cytotoxicity against human 22Rv1 cells assessed as reduction in cell viability incubated for 48 hrs by MTT assay; type: functional, cell-based; conditions: 22Rv1, 48 h
[12] = tested on: DU-145; test: Cytotoxicity against human DU-145 cells assessed as reduction in cell viability incubated for 72 hrs by MTT assay; conditions: DU-145, 72 h
[13] = tested on: LNCaP; test: Cytotoxicity against human LNCaP cells assessed as reduction in cell viability incubated for 72 hrs by MTT assay
[14] = molecular target: T2, Glutamate carboxypeptidase 2 (Homo sapiens, UniProt Q04609); test: Binding affinity to human recombinant PSMA in LNCaP cells assessed as inhibition constant; type: cell-based
[15] = Antiproliferative activity against human PC3-PIP cells assessed as reduction in cell viability incubated for 72 hrs by XTT assay
[16] = molecular target: Cathepsin B (Homo sapiens, UniProt P07858); test: Inhibition of cathepsin B (unknown origin)
[17] = Antitumor activity against human PC3-PIP cells xenografted in […] assessed as reduction in tumor volume at 80 mg/kg, IP; type: functional, PC3-PIP cell
[18] = Half life in BALB/c mouse at 67 mg/kg by LC-MS/MS analysis; type: ADME, organism-based; conditions: in vivo
[19] = molecular target: T2, Glutamate carboxypeptidase 2; test: Inhibition of human recombinant PSMA

T2 sequence (Q04609 whole entry): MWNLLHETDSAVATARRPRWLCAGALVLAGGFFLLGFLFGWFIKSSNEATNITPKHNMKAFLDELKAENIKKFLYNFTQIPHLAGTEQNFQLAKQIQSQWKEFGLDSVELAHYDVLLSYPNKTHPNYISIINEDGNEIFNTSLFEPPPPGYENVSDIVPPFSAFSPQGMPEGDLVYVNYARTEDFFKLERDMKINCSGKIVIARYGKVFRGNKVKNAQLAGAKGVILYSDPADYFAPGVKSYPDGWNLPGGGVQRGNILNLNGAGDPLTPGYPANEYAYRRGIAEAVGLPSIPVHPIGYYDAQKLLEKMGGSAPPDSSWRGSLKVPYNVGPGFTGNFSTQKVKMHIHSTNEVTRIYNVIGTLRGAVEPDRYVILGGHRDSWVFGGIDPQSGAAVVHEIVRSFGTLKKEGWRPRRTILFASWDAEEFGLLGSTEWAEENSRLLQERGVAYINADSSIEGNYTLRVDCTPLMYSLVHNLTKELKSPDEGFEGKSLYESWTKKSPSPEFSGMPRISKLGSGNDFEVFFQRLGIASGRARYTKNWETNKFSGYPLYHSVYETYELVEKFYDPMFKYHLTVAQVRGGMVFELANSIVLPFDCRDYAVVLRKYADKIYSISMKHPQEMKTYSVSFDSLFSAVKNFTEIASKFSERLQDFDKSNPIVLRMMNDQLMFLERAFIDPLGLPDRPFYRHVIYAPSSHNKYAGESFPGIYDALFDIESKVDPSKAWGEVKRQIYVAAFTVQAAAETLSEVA
N-acetylated-alpha-linked acidic dipeptidase 2, sequence (Q9Y3Q0 whole entry): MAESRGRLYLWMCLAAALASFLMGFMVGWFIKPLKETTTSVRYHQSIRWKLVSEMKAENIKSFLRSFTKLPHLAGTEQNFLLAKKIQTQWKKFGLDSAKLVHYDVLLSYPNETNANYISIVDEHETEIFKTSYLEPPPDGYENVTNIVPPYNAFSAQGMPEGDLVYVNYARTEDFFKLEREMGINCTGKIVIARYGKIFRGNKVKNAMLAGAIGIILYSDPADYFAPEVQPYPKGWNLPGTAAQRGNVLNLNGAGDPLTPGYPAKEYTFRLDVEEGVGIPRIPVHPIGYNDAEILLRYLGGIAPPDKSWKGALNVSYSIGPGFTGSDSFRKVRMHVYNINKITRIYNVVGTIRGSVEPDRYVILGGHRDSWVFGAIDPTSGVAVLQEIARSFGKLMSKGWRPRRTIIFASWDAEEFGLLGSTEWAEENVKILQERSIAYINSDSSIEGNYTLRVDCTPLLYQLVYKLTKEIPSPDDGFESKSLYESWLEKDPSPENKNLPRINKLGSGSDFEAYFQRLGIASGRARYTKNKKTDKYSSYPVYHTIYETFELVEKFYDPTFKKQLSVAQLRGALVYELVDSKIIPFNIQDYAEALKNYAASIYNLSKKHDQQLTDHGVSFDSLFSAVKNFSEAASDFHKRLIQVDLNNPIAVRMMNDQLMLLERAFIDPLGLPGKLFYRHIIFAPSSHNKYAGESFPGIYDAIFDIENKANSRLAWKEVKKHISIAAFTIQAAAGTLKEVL

In the case of O=C(O)CCC(CP(=O)(O)O)C(=O)O (stereo not given), the Ki [1] is reported as ~0.275 nM.
Work on CC[C@@H](C)[C@H]([C@H](CC(=O)N1CCC[C@@H]1[C@@H](OC)[C@H](C)C(=O)N[C@@H](C)[C@H](O)c1ccccc1)OC)N(C)C(=O)[C@H](NC(=O)[C@@H](C(C)C)N(C)C(=O)OCc1ccc(NC(=O)[C@@H](CCCNC(N)=O)NC(=O)[C@@H](NC(=O)CCCCCN2C(=O)CC(SC[C@H](NC(=O)[C@H](CCC(=O)O)NC(=O)[C@H](CCC(=O)O)NC(=O)[C@H](CCC(=O)O)NC(=O)CCCCCNC(=O)[C@H]3CC[C@H](CNC(=O)CC[C@@H](NC(=O)N[C@H](CCC(=O)O)C(=O)O)C(=O)O)CC3)C(=O)NCCCCCC(=O)N[C@@H](CCCCNC(=O)CCCCC[N+]3=C(/C=C/C=C/C=C4/N(C)c5ccc6ccccc6c5C4(C)C)C(C)(C)c4c3ccc3ccccc43)C(=O)O)C2=O)C(C)C)cc1)C(C)C (stereo not given in full) yielded an IC50 [2] of 4.34 nM, an IC50 [3] of 0.84 nM and an IC50 [4] of 17 nM. For the same molecule, the IC50 [5] was 4.64 nM.
O=C(O)CC[C@H](NC(=O)N[C@@H](CCC(=O)O)C(=O)O)C(=O)O showed a Ki [6] of 8 nM.
For CCCC(=O)OCN(C(=O)[C@@H](NC(=O)[C@H]1CCCCN1C)[C@@H](C)CC)[C@H](C[C@@H](OC(C)=O)c1nc(C(=O)N[C@@H](Cc2ccc(O)cc2)C[C@H](C)C(=O)NNC(=O)OCCSSC[C@H](NC(=O)[C@H](CC(=O)O)NC(=O)[C@H](CC(=O)O)NC(=O)Cc2ccc(CNC(=O)NCCCC[C@@H](NC(=O)N[C@H](CCC(=O)O)C(=O)O)C(=O)O)cc2)C(=O)O)cs1)C(C)C, the IC50 [7] was ~13 nM, the IC50 [8] was 0.9 nM and the IC50 [9] was 0.6 nM.
CC(=O)O[C@H]1C(=O)[C@@]2(C)[C@H]([C@H](OC(=O)c3ccccc3)[C@]3(O)C[C@H](OC(=O)[C@H](OC(=O)CSSCC(=O)NCCNC(=O)CC[C@@H](NC(=O)N[C@H](CCC(=O)O)C(=O)O)C(=O)O)[C@@H](NC(=O)c4ccccc4)c4ccccc4)C(C)=C1C3(C)C)[C@]1(OC(C)=O)CO[C@@H]1C[C@@H]2O showed an IC50 at 48 h [10] of 14.2 nM and an IC50 ([11]; read-out: IC50) of 121 nM.
In the case of CC(=O)O[C@H]1C(=O)[C@@]2(C)[C@H]([C@H](OC(=O)c3ccccc3)[C@]3(O)C[C@H](OC(=O)[C@H](O)[C@@H](NC(=O)c4ccccc4)c4ccccc4)C(C)=C1C3(C)C)[C@]1(OC(C)=O)CO[C@@H]1C[C@@H]2O [PACLITAXEL], the IC50 [11] is reported as 563 nM.
In the case of CC[C@H](C)[C@@H]([C@@H](CC(=O)N1CCC[C@H]1[C@H](OC)[C@@H](C)C(=O)N[C@H](C)[C@@H](O)c1ccccc1)OC)N(C)C(=O)[C@@H](NC(=O)[C@H](C(C)C)N(C)C(=O)OCc1ccc(NC(=O)[C@H](CCCNC(N)=O)NC(=O)[C@@H](NC(=O)CCCCCN2C(=O)CC(SCCC(=O)NC(Cc3cn(CCOCCNCCCCCCOc4cc(OCCCc5c(C)n[nH]c5C)cc(C(=O)O)c4)nn3)C(=O)NCCCCCC(=O)NCCCC[C@H](NC(=O)N[C@@H](CCC(=O)O)C(=O)O)C(=O)O)C2=O)C(C)C)cc1)C(C)C (stereo not given in full), the IC50 [12] is reported as 313 nM and the IC50 [13] is reported as 5.4 nM.
NCCCC[C@H](NC(=O)N[C@@H](CCC(=O)O)C(=O)O)C(=O)O gave a Ki [14] of 12 nM.
With CC[C@@H](C)[C@H]([C@H](CC(=O)N1CCC[C@@H]1[C@@H](OC)[C@H](C)C(=O)N[C@@H](C)[C@H](O)c1ccccc1)OC)N(C)C(=O)[C@@H](NC(=O)[C@H](C(C)C)N(C)C(=O)OCc1ccc(NC(=O)[C@@H](CCCNC(N)=O)NC(=O)[C@H](NC(=O)CCCCCCC(=O)NCCCC[C@@H](NC(=O)N[C@H](CCC(=O)O)C(=O)O)C(=O)O)C(C)C)cc1)C(C)C the IC50 [15] was 3.9 nM, the IC50 [16] was ~0.04 nM and the Activity [17] was 62.4 mm3.
With C/C=C(/C)C(=O)O[C@H]1C(C)=C2[C@H]([C@@H]1OC(=O)CCCCCCC)[C@@](C)(OC(C)=O)C[C@H](OC(=O)CCCCCCCCCCCNC(=O)C[C@H](N)C(=O)N[C@@H](CCC(=O)N[C@@H](CCC(=O)N[C@@H](CCC(=O)N[C@@H](CCC(=O)O)C(=O)O)C(=O)O)C(=O)O)C(=O)O)[C@@]1(O)[C@H]2OC(=O)[C@@]1(C)O [MIPSAGARGIN] the half-life [18] was 4.9 h.
With CSC[C@@H](NC(=O)N[C@H](CCC(=O)O)C(=O)O)C(=O)O the IC50 [19] was 15.3 nM.
